PubChem BioAssay AID1963969 (Molecular Pharmacology Branch, DTP, NCI, 2024)

Tested on: 817829-284-R-J1-PDC multi-cell spheroid viability
Experiment: Anticancer human tumor 817829-284-R-J1-PDC patient-derived colon adenocarcinoma cell line growth inhibition [PI3K]
Conditions: for IC50: curve of first compound; for viability, T/C: stronger effect = lower value
Source text: Combinatorial screen of targeted agents with the PI3K inhibitors inavolisib, alpelisib, duvelisib, and copanlisib in multi-cell type tumor spheroids
A high-throughput screen of multi-cell type tumor spheroids was designed to identify active combinations of targeted small molecules and PI3K pathway inhibitors. Complex spheroids include a stromal component modeled by human endothelial cells (HUVEC) and fibroblasts modeled by human mesenchymal stem cells (MSCs). The concentration ranges selected for each drug and investigational agent were based upon clinically achievable concentrations if the clinical Cmax of the agent was known.
Compounds. The drugs and investigational agents: inavolisib (NSC800729), alpelisib (NSC765974), duvelisib (NSC772469), copanlisib (NSC816437), ipatasertib (NSC767898), afuresertib (NSC778305), talazoparib (NSC767125), sapanisertib (NSC764658), selumetinib (NSC741078), tovorafenib (DAY101, NSC766906), vemurafenib (NSC761431), ravoxertinib (NSC781343), sotorasib (NSC818433), MRTX1133 (NSC 836407), abemaciclib (NSC 768073), palbociclib (NSC758247), venetoclax (NSC 766270), SY5609 (NSC837396), enzalutamide (NSC755605), and darolutamide (NSC825331), were obtained from the National Cancer Institute (NCI) Developmental Therapeutics Program Chemical Repository. The FDA-approved anticancer drug set is available from the NCI Developmental Therapeutics Program. […] The stock solutions were prepared in dimethyl sulfoxide (DMSO, Sigma-Aldrich, St. Louis, MO, cat. D2650) at 800-fold the tested concentration and stored at -70 degrees C prior to their use. All drugs and investigational agents were tested over a range starting from a high concentration at or near the clinical Cmax and decreasing in half-log increments. If the clinical Cmax for an agent had not been determined, the highest concentration tested was 10 microM.
Cell Culture. All cells were maintained in an incubator at 37 degrees C and 5% CO2 with 95% humidity. The PDC lines were cultured according to standard operating procedures established by the NCI PDMR (https://pdmr.cancer.gov/sops/default.htm). All PDCs were thawed and cultured in Matrigel-coated flasks prepared with a working solution of 1X Ham's F-12 nutrient mix, without supplementation (Invitrogen, Waltham, MA, cat. 11765054), 100 U/mL penicillin-streptomycin (Invitrogen, cat. 15140122), and 2.5% Matrigel (Corning Inc., Corning, NY, cat. 354248) for the first three passages. The 354836-022-R-J1-PDC, 475296-252-R-J1-PDC, and 997726-040-R-J2-PDC lines were cultured in 6A media, which includes advanced DMEM/F-12 (Thermo Fisher Scientific, cat. 12634028), 10 mM HEPES (Thermo Fisher Scientific, cat. 15630080), 1X GlutaMAX supplement (Thermo Fisher Scientific, cat. 35050061), 0.1 mg/mL primocin (InvivoGen, San Diego, CA, cat. ant-pm-2), 10% defined fetal bovine serum, heat inactivated (HyClone Laboratories Inc., Logan, UT, cat. SH30070.03HI), 50% L-WRN conditioned media (ATCC, cat. CRL-3276), 1.25 mM N-Acetyl-L-cysteine (Sigma-Aldrich, cat. A9165), 10 mM nicotinamide (Sigma-Aldrich, cat. N0636), 1X B-27 supplement (Thermo Fisher Scientific, cat. 17504044), 1X N-2 supplement (Thermo Fisher Scientific, cat. 17502048), and 10 microM Y-27632 dihydrochloride (Tocris Bioscience, Bristol, United Kingdom, cat. 1254). The 624824-186-R-J2-PDC line was cultured in 6C/Colon 1B media, which includes all 6A media components plus 50 ng/mL human EGF recombinant protein (Thermo Fisher Scientific, cat. PHG0311). […]

[1] = second compound 0.00316 µM, first compound 0.0316 µM
[2] = second compound 0.00316 µM, first compound 0.1 µM
[3] = second compound 0.01 µM, first compound 0.0316 µM
[4] = second compound 0.01 µM, first compound 0.1 µM
[5] = second compound 0.0316 µM, first compound 0.0316 µM
[6] = second compound 0.0316 µM, first compound 0.1 µM
[7] = second compound 0.1 µM, first compound 0.0316 µM
[8] = second compound 0.1 µM, first compound 0.1 µM
[9] = second compound 0.316 µM, first compound 0.0316 µM
[10] = second compound 0.316 µM, first compound 0.1 µM
[11] = second compound 1 µM, first compound 0.0316 µM
[12] = second compound 1 µM, first compound 0.1 µM
[13] = second compound 0.00316 µM, first compound 0.316 µM
[14] = second compound 0.00316 µM, first compound 1 µM
[15] = second compound 0.00316 µM, first compound 3.16 µM
[16] = second compound 0.00316 µM, first compound 10 µM
[17] = second compound 0.01 µM, first compound 0.316 µM
[18] = second compound 0.01 µM, first compound 1 µM
[19] = second compound 0.01 µM, first compound 3.16 µM
[20] = second compound 0.01 µM, first compound 10 µM
[21] = second compound 0.0316 µM, first compound 0.316 µM
[22] = second compound 0.0316 µM, first compound 1 µM
[23] = second compound 0.0316 µM, first compound 3.16 µM
[24] = second compound 0.0316 µM, first compound 10 µM
[25] = second compound 0.1 µM, first compound 0.316 µM
[26] = second compound 0.1 µM, first compound 1 µM
[27] = second compound 0.1 µM, first compound 3.16 µM
[28] = second compound 0.1 µM, first compound 10 µM
[29] = second compound 0.316 µM, first compound 0.316 µM
[30] = second compound 0.316 µM, first compound 1 µM
[31] = second compound 0.316 µM, first compound 3.16 µM
[32] = second compound 0.316 µM, first compound 10 µM
[33] = second compound 1 µM, first compound 0.316 µM
[34] = second compound 1 µM, first compound 1 µM
[35] = second compound 1 µM, first compound 3.16 µM
[36] = second compound 1 µM, first compound 10 µM
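Further: spheroids exposed to agents for seven days before readout.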
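Wherever viability, T/C is given: percent of vehicle DMSO control viability which is 100%.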

In the case of `CC(=O)c1c(C)c2cnc(Nc3ccc(N4CCNCC4)cn3)nc2n(C2CCCC2)c1=O` + CC(Nc1ccc2c(c1)OCCn1cc(N3C(=O)OCC3C(F)F)nc1-2)C(N)=O, the IC50 (second compound 0.00316 µM) is reported as 69.7 nM, the IC50 (second compound 0.01 µM) is reported as 76.1 nM and the IC50 (second compound 0.0316 µM) is reported as 33.9 nM. It also gave an IC50 (second compound 0.1 µM) of 28.7 nM, an IC50 (second compound 0.316 µM) of 13.7 nM and an IC50 (second compound 1 µM) of 8.65 nM. It also gave a viability, T/C (second compound 0.00316 µM, first compound 0.000316 µM) of 79.4%, a viability, T/C (second compound 0.00316 µM, first compound 0.001 µM) of 78.4% and a viability, T/C (second compound 0.00316 µM, first compound 0.00316 µM) of 74.4%. It also gave a viability, T/C (second compound 0.00316 µM, first compound 0.01 µM) of 73.2%, a viability, T/C [1] of 142% and a viability, T/C [2] of 31.9%. It also gave a viability, T/C (second compound 0.01 µM, first compound 0.000316 µM) of 124%, a viability, T/C (second compound 0.01 µM, first compound 0.001 µM) of 74.5% and a viability, T/C (second compound 0.01 µM, first compound 0.00316 µM) of 107%. For the same compound, the viability, T/C (second compound 0.01 µM, first compound 0.01 µM) was 56.3%, the viability, T/C [3] was 58.8% and the viability, T/C [4] was 48.4%. The viability, T/C (second compound 0.0316 µM, first compound 0.000316 µM) was 73.5%, the viability, T/C (second compound 0.0316 µM, first compound 0.001 µM) was 80% and the viability, T/C (second compound 0.0316 µM, first compound 0.00316 µM) was 84.3%. The viability, T/C (second compound 0.0316 µM, first compound 0.01 µM) was 62.5%, the viability, T/C [5] was 53.4% and the viability, T/C [6] was 31.4%. For the same compound, the viability, T/C (second compound 0.1 µM, first compound 0.000316 µM) was 85.1%, the viability, T/C (second compound 0.1 µM, first compound 0.001 µM) was 86% and the viability, T/C (second compound 0.1 µM, first compound 0.00316 µM) was 60.1%. It also gave a viability, T/C (second compound 0.1 µM, first compound 0.01 µM) of 105%, a viability, T/C [7] of 46.8% and a viability, T/C [8] of 37%. For the same compound, the viability, T/C (second compound 0.316 µM, first compound 0.000316 µM) was 51.7%, the viability, T/C (second compound 0.316 µM, first compound 0.001 µM) was 52.2% and the viability, T/C (second compound 0.316 µM, first compound 0.00316 µM) was 69.7%. It also gave a viability, T/C (second compound 0.316 µM, first compound 0.01 µM) of 52.4%, a viability, T/C [9] of 38.3% and a viability, T/C [10] of 23.3%. For the same compound, the viability, T/C (second compound 1 µM, first compound 0.000316 µM) was 68.8%, the viability, T/C (second compound 1 µM, first compound 0.001 µM) was 68.7% and the viability, T/C (second compound 1 µM, first compound 0.00316 µM) was 53.5%. The viability, T/C (second compound 1 µM, first compound 0.01 µM) was 55.6%, the viability, T/C [11] was 29.7% and the viability, T/C [12] was 27.2%.

`CCCS(=O)(=O)Nc1ccc(F)c(C(=O)c2c[nH]c3ncc(-c4ccc(Cl)cc4)cc23)c1F` + CC(Nc1ccc2c(c1)OCCn1cc(N3C(=O)OCC3C(F)F)nc1-2)C(N)=O gave an IC50 (second compound 0.00316 µM) of 2230 nM, an IC50 (second compound 0.01 µM) of 1680 nM and an IC50 (second compound 0.0316 µM) of 3740 nM. The IC50 (second compound 0.1 µM) was < 31.6 nM, the IC50 (second compound 0.316 µM) was < 31.6 nM and the IC50 (second compound 1 µM) was < 31.6 nM. It also gave a viability, T/C [1] of 67%, a viability, T/C [2] of 57.9% and a viability, T/C [13] of 61.3%. For the same compound, the viability, T/C [14] was 51.6%, the viability, T/C [15] was 49.6% and the viability, T/C [16] was 3.89%. It also gave a viability, T/C [3] of 95.3%, a viability, T/C [4] of 56.5% and a viability, T/C [17] of 67.8%. It also gave a viability, T/C [18] of 56%, a viability, T/C [19] of 49.7% and a viability, T/C [20] of 4.85%. The viability, T/C [5] was 69.3%, the viability, T/C [6] was 52.4% and the viability, T/C [21] was 69.7%. It also gave a viability, T/C [22] of 32.1%, a viability, T/C [23] of 65.4% and a viability, T/C [24] of 4.59%. It also gave a viability, T/C [7] of 38.9%, a viability, T/C [8] of 53% and a viability, T/C [25] of 47.8%. For the same compound, the viability, T/C [26] was 45.9%, the viability, T/C [27] was 38.5% and the viability, T/C [28] was 5.88%. For the same compound, the viability, T/C [9] was 43.5%, the viability, T/C [10] was 57.1% and the viability, T/C [29] was 55%. The viability, T/C [30] was 43.1%, the viability, T/C [31] was 47.3% and the viability, T/C [32] was 6.23%. The viability, T/C [11] was 55.9%, the viability, T/C [12] was 44% and the viability, T/C [33] was 46.9%. The viability, T/C [34] was 34%, the viability, T/C [35] was 50.1% and the viability, T/C [36] was 6.69%.

In the case of `CNC(=O)c1ccc(N2C(=S)N(c3ccc(C#N)c(C(F)(F)F)c3)C(=O)C2(C)C)cc1F` + CC(Nc1ccc2c(c1)OCCn1cc(N3C(=O)OCC3C(F)F)nc1-2)C(N)=O, the IC50 (second compound 0.00316 µM) is reported as > 10000 nM, the IC50 (second compound 0.01 µM) is reported as > 10000 nM and the IC50 (second compound 0.0316 µM) is reported as > 10000 nM. For the same compound, the IC50 (second compound 0.1 µM) was 4180 nM, the IC50 (second compound 0.316 µM) was 3370 nM and the IC50 (second compound 1 µM) was < 31.6 nM. The viability, T/C [1] was 57.7%, the viability, T/C [2] was 88.8% and the viability, T/C [13] was 109%. The viability, T/C [14] was 75.6%, the viability, T/C [15] was 61.9% and the viability, T/C [16] was 50.9%. For the same compound, the viability, T/C [3] was 86.1%, the viability, T/C [4] was 77.6% and the viability, T/C [17] was 89.1%. For the same compound, the viability, T/C [18] was 70.7%, the viability, T/C [19] was 60.5% and the viability, T/C [20] was 71.4%. It also gave a viability, T/C [5] of 70.1%, a viability, T/C [6] of 79.2% and a viability, T/C [21] of 87.5%. The viability, T/C [22] was 56.7%, the viability, T/C [23] was 67.1% and the viability, T/C [24] was 54.6%. The viability, T/C [7] was 56.5%, the viability, T/C [8] was 53.4% and the viability, T/C [25] was 65.9%. For the same compound, the viability, T/C [26] was 48.9%, the viability, T/C [27] was 61.6% and the viability, T/C [28] was 27.3%. It also gave a viability, T/C [9] of 46.8%, a viability, T/C [10] of 61.8% and a viability, T/C [29] of 58%. It also gave a viability, T/C [30] of 53.5%, a viability, T/C [31] of 51% and a viability, T/C [32] of 32.8%. It also gave a viability, T/C [11] of 32.4%, a viability, T/C [12] of 40.7% and a viability, T/C [33] of 44.9%. It also gave a viability, T/C [34] of 45.9%, a viability, T/C [35] of 41.4% and a viability, T/C [36] of 20.6%.
